Assay results: patent US20260232767A1, “INTERLEUKIN-23 RECEPTOR ANTAGONIST PEPTIDES FOR USE IN THE TREATMENT OF PSORIASIS” (Janssen Pharmaceutica NV, priority 2023, published 2026)
Read-outs that look alike come from different tables or passages of the source.

How the values were obtained:
[1] = test system: subjects with moderate-to-severe plaque psoriasis; assay: Elevated liver function tests; format: in vivo, human; details: through Week 56
[2] = test system: neutralizing antibodies to the IL-23 receptor antagonist peptide; details: through Week 16
scalp psoriasis = assay: Scalp Specific IGA (ss-IGA), Example 1; format: in vivo, human; details: Week 16
Protocol: The Scalp Specific Investigator Global Assessment (ss-IGA) instrument is used to evaluate the disease severity of scalp psoriasis. The lesions are assessed in terms of the clinical signs of redness, thickness, and scaliness which are scored as: absence of disease (0), very mild disease (1), mild disease (2), moderate disease (3), and severe disease (4).
Clinician-reported outcomes including Psoriasis Area and Severity Index (PASI), Body Surface Area (BSA), Investigator's Global Assessment (IGA), Nail Psoriasis Area and Severity Index (NAPSI), Fingernail Physician's Global Assessment (f-PGA), Static Physician's Global Assessment of Genitalia (s-PGA-G), Physician's Global Assessment of Hands and/or Feet (hf-PGA), and Scalp Specific Investigator Global Assessment (ss-IGA) were obtained at Week 0, 8, and 16. PASI and IGA were also obtained at Weeks 1, 2, 4, and 12, and at Week 20, four weeks after the administration of the tablets has stopped.
Proportion of Patients Achieving scalp-specific (ss)-IGA score 0/1 and ss-IGA score 0 and With at Least a 2-Grade Improvement from baseline at Week 16.

[3] = 25 mg BID, at least 1 post-baseline value
[4] = 25 mg BID, baseline ≤ULN and at least 1 post-baseline value
[5] = 25 mg QD, at least 1 post-baseline value
[6] = 25 mg QD, baseline ≤ULN and at least 1 post-baseline value
[7] = 50 mg QD, at least 1 post-baseline value
[8] = 50 mg QD, baseline ≤ULN and at least 1 post-baseline value
[9] = 100 mg BID, at least 1 post-baseline value
[10] = 100 mg BID, baseline ≤ULN and at least 1 post-baseline value
[11] = 100 mg QD, at least 1 post-baseline value
[12] = 100 mg QD, baseline ≤ULN and at least 1 post-baseline value
[13] = Combined, at least 1 post-baseline value
[14] = Combined, baseline ≤ULN and at least 1 post-baseline value
[15] = Placebo → 100 mg QD, at least 1 post-baseline value
[16] = Placebo → 100 mg QD, baseline ≤ULN and at least 1 post-baseline value

CC(=O)NCCCC[C@@H]1NC(=O)[C@H](Cc2c[nH]c3c(C)cccc23)NC(=O)[C@H]([C@@H](C)O)NC(=O)[C@H](CC(N)=O)NC(=O)[C@@H](NC(C)=O)C(C)(C)SSC(C)(C)[C@@H](C(=O)N[C@@H](Cc2ccc(OCCN)cc2)C(=O)N[C@@H](Cc2ccc3ccccc3c2)C(=O)NC2(C(=O)N[C@@H](CCC(=O)O)C(=O)N[C@@H](CC(N)=O)C(=O)N[C@@H](Cc3cccnc3)C(=O)N(C)CC(N)=O)CCOCC2)NC1=O [IL-23 receptor antagonist peptide, Ac-[Pen]*-N-T-[W(7-Me)]-[Lys(Ac)]-[Pen]*-Phe[4-(2-aminoethoxy)]-[2-Nal]-[THP]-E-N-[3-Pal]-Sarc-NH2 (*[Pen]-[Pen]* formdisulfidebond)] was tested, and the “Subjects with Total Bilirubin >2 × ULN and either AST or ALT ≥3 × ULN at the same timepoint” value (“Subjects … at the same timepoint” for short) ([1]; 25 mg BID) was 0, the “Subjects with ALT ≥5 × ULN” value [1, 3] was 0 and the “Subjects with ALT ≥10 × ULN” value [1, 3] was 0. For the same molecule, the “Subjects with ALT ≥20 × ULN” value [1, 3] was 0, the “Subjects with AST ≥5 × ULN” value [1, 3] was 0 and the “Subjects with AST ≥10 × ULN” value [1, 3] was 0. For the same molecule, the “Subjects with AST ≥20 × ULN” value [1, 3] was 0, the “Subjects with ALT ≥5 × ULN” value [1, 4] was 0 and the “Subjects with ALT ≥10 × ULN” value [1, 4] was 0. For the same molecule, the “Subjects with ALT ≥20 × ULN” value [1, 4] was 0, the “Subjects with AST ≥5 × ULN” value [1, 4] was 0 and the “Subjects with AST ≥10 × ULN” value [1, 4] was 0. The “Subjects with AST ≥20 × ULN” value [1, 4] was 0, the “Subjects … at the same timepoint” value ([1]; 25 mg QD) was 0 and the “Subjects with ALT >1 × ULN” value [1, 5] was 7. The “Subjects with ALT ≥10 × ULN” value [1, 5] was 0, the “Subjects with ALT ≥20 × ULN” value [1, 5] was 0 and the “Subjects with AST ≥5 × ULN” value [1, 5] was 0. For the same molecule, the “Subjects with AST ≥10 × ULN” value [1, 5] was 0, the “Subjects with AST ≥20 × ULN” value [1, 5] was 0 and the “Subjects with ALT ≥10 × ULN” value [1, 6] was 0. The “Subjects with ALT ≥20 × ULN” value [1, 6] was 0, the “Subjects with AST ≥5 × ULN” value [1, 6] was 0 and the “Subjects with AST ≥10 × ULN” value [1, 6] was 0. For the same molecule, the “Subjects with AST ≥20 × ULN” value [1, 6] was 0, the “Subjects … at the same timepoint” value ([1]; 50 mg QD) was 0 and the “Subjects with ALT ≥3 × ULN” value [1, 7] was 0. For the same molecule, the “Subjects with ALT ≥5 × ULN” value [1, 7] was 0, the “Subjects with ALT ≥10 × ULN” value [1, 7] was 0 and the “Subjects with ALT ≥20 × ULN” value [1, 7] was 0. The “Subjects with AST ≥3 × ULN” value [1, 7] was 0, the “Subjects with AST ≥5 × ULN” value [1, 7] was 0 and the “Subjects with AST ≥10 × ULN” value [1, 7] was 0. For the same molecule, the “Subjects with AST ≥20 × ULN” value [1, 7] was 0, the “Subjects with ALT ≥3 × ULN” value [1, 8] was 0 and the “Subjects with ALT ≥5 × ULN” value [1, 8] was 0. For the same molecule, the “Subjects with ALT ≥10 × ULN” value [1, 8] was 0, the “Subjects with ALT ≥20 × ULN” value [1, 8] was 0 and the “Subjects with AST ≥3 × ULN” value [1, 8] was 0. For the same molecule, the “Subjects with AST ≥5 × ULN” value [1, 8] was 0, the “Subjects with AST ≥10 × ULN” value [1, 8] was 0 and the “Subjects with AST ≥20 × ULN” value [1, 8] was 0. The “Subjects … at the same timepoint” value ([1]; 100 mg BID) was 0, the “Subjects with ALT ≥3 × ULN” value [1, 9] was 5 and the “Subjects with ALT ≥5 × ULN” value [1, 9] was 0. For the same molecule, the “Subjects with ALT ≥10 × ULN” value [1, 9] was 0, the “Subjects with ALT ≥20 × ULN” value [1, 9] was 0 and the “Subjects with AST ≥10 × ULN” value [1, 9] was 0. The “Subjects with AST ≥20 × ULN” value [1, 9] was 0, the “Subjects with ALT ≥5 × ULN” value [1, 10] was 0 and the “Subjects with ALT ≥10 × ULN” value [1, 10] was 0. The “Subjects with ALT ≥20 × ULN” value [1, 10] was 0, the “Subjects with AST >1 × ULN” value [1, 10] was 4 and the “Subjects with AST ≥10 × ULN” value [1, 10] was 0. For the same molecule, the “Subjects with AST ≥20 × ULN” value [1, 10] was 0, the “Subjects … at the same timepoint” value ([1]; 100 mg QD) was 0 and the “Subjects with ALT ≥5 × ULN” value [1, 11] was 0. The “Subjects with ALT ≥10 × ULN” value [1, 11] was 0, the “Subjects with ALT ≥20 × ULN” value [1, 11] was 0 and the “Subjects with AST >1 × ULN” value [1, 11] was 9. For the same molecule, the “Subjects with AST ≥5 × ULN” value [1, 11] was 0, the “Subjects with AST ≥10 × ULN” value [1, 11] was 0 and the “Subjects with AST ≥20 × ULN” value [1, 11] was 0. For the same molecule, the “Subjects with ALT ≥5 × ULN” value [1, 12] was 0, the “Subjects with ALT ≥10 × ULN” value [1, 12] was 0 and the “Subjects with ALT ≥20 × ULN” value [1, 12] was 0. The “Subjects with AST ≥5 × ULN” value [1, 12] was 0, the “Subjects with AST ≥10 × ULN” value [1, 12] was 0 and the “Subjects with AST ≥20 × ULN” value [1, 12] was 0. For the same molecule, the “Subjects … at the same timepoint” value ([1]; Combined) was 0, the “Subjects with ALT ≥10 × ULN” value [1, 13] was 0 and the “Subjects with ALT ≥20 × ULN” value [1, 13] was 0. The “Subjects with AST ≥10 × ULN” value [1, 13] was 0, the “Subjects with AST ≥20 × ULN” value [1, 13] was 0 and the “Subjects with ALT ≥10 × ULN” value [1, 14] was 0. The “Subjects with ALT ≥20 × ULN” value [1, 14] was 0, the “Subjects with AST ≥10 × ULN” value [1, 14] was 0 and the “Subjects with AST ≥20 × ULN” value [1, 14] was 0. For the same molecule, the “Subjects … at the same timepoint” value ([1]; Placebo → 100 mg QD) was 0, the “Subjects with ALT ≥5 × ULN” value [1, 15] was 0 and the “Subjects with ALT ≥10 × ULN” value [1, 15] was 0. For the same molecule, the “Subjects with ALT ≥20 × ULN” value [1, 15] was 0, the “Subjects with AST ≥10 × ULN” value [1, 15] was 0 and the “Subjects with AST ≥20 × ULN” value [1, 15] was 0. The “Subjects with ALT ≥5 × ULN” value [1, 16] was 0, the “Subjects with ALT ≥10 × ULN” value [1, 16] was 0 and the “Subjects with ALT ≥20 × ULN” value [1, 16] was 0. For the same molecule, the “Subjects with AST ≥10 × ULN” value [1, 16] was 0, the “Subjects with AST ≥20 × ULN” value [1, 16] was 0 and the “Subjects negative for neutralizing antibodies, %” value (shortened to “Subjects negative … %”) ([2]; 25 mg QD, 1 evaluable) was “(100%)”. The “Subjects negative … %” value ([2]; 50 mg QD, 1 evaluable) was “(100%)”, the “Subjects negative … %” value ([2]; 100 mg BID, 3 evaluable) was “(100%)” and the “Subjects negative … %” value ([2]; 100 mg QD, 3 evaluable) was “(100%)”. The “Subjects negative … %” value ([2]; Combined doses, 8 evaluable) was “(100%)”, the “NAb result of ADA-positive samples” value [2] was “negative” and the “ss-IGA score 0/1 and ≥2-grade improvement from baseline, %” value (scalp psoriasis; 25 mg BID, baseline ss-IGA score ≥2, n=32) was “(65.6) %”. For the same molecule, the “ss-IGA score 0/1 and ≥2-grade improvement from baseline, %” value (scalp psoriasis; 25 mg QD, baseline ss-IGA score ≥2, n=37) was “(32.4) %”, the “ss-IGA score 0/1 and ≥2-grade improvement from baseline, %” value (scalp psoriasis; 50 mg QD, baseline ss-IGA score ≥2, n=40) was 70.0% and the “ss-IGA score 0/1 and ≥2-grade improvement from baseline, %” value (scalp psoriasis; 100 mg BID, baseline ss-IGA score ≥2, n=36) was 75.0%. The “ss-IGA score 0/1 and ≥2-grade improvement from baseline, %” value (scalp psoriasis; 100 mg QD, baseline ss-IGA score ≥2, n=40) was 67.5% and the “Response rate ss-IGA score 0/1 with ≥2-grade improvement from baseline” value (scalp psoriasis; all doses vs placebo) was “significantly higher than placebo”.
